The GI50 is the concentration giving 50% growth inhibition.

Consider eleven molecules from ChEMBL document CHEMBL1201862, “PubChem BioAssay data set” (2004).

Test systems include TK-10; SN12C; OVCAR-3; SR; IGROV-1; HCT-15; SW-620; T47D; MDA-MB-435; OVCAR-4; SF-539; SF-268; HCT-116; MDA-MB-231; NCI/ADR-RES; NCI-H226; HCC 2998; RXF 393; U-251; PC-3.
Assay in all cases: DTP human tumour cell line panel, 48 h

Where “and” joins values, the source holds several entries; their conditions need not be identical. Identical values can stand only once.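 Dose response: 5 concentrations. Exposure: 48 h. Format: 96-well plates. Endpoint: linear interpolation; highest concentration if not reached. The concentration for 50% growth inhibition is given as GI50.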 Calls of active or inactive are those of the source. Rule as the data show it: active = GI50 up to about 1.1 µM and inactive = higher.

Regarding `Cc1ccc(S(=O)(=O)N2CCN(S(=O)(=O)c3ccc(C)cc3)Cc3ccccc3C2)cc1`, the GI50 in the assay with TK-10 is > 100 µM (inactive); in the assay with SN12C it was 53.2 µM (inactive); with OVCAR-3, 56.8 µM (inactive); in the assay on SR, > 100 µM (inactive); in the assay on IGROV-1 it was > 100 µM (inactive); with HCT-15, greater than 100 µM. In addition, the GI50 in the assay on SW-620 is > 100 µM (inactive); in the assay with T47D, 28.2 µM (inactive); in the assay on MDA-MB-435, 34.3 µM (inactive); with OVCAR-4 it was 18.8 µM (inactive); in the assay with SF-539, > 100 µM (inactive); with SF-268, 81.1 µM (inactive). For the same molecule, the GI50 was > 100 µM (inactive) with HCT-116; > 100 µM (inactive) in the assay on MDA-MB-231; > 100 µM (inactive) with NCI/ADR-RES; 60.3 µM (inactive) in the assay on NCI-H226; > 100 µM (inactive) in the assay with HCC 2998.

Turning to `COC1=NC(NC2OCC(O)C(O)C2O)=C(NC(C)=O)CN1C` (configuration not stated), the GI50 in the assay on TK-10 was > 100 µM (inactive); with OVCAR-3, > 100 µM (inactive); in the assay on HCT-15, greater than 100 µM; with RXF 393, > 100 µM (inactive); in the assay on SW-620 it was > 100 µM (inactive); in the assay with T47D, > 100 µM (inactive). Also, the GI50 in the assay on MDA-MB-435, with OVCAR-4, with SF-539, in the assay on SF-268, in the assay on HCT-116 and in the assay on MDA-MB-231 was > 100 µM (inactive) in each case. Further, the GI50 in the assay with NCI/ADR-RES, in the assay with NCI-H226 and in the assay on HCC 2998 was > 100 µM (inactive) in each case.

`Cc1ccc(S(=O)(=O)SC/C=C\CSS(=O)(=O)c2ccc(C)cc2)cc1`: the GI50 in the assay with SN12C is 18.8 µM (inactive) and 9.71 µM (inactive); in the assay with OVCAR-3, 24.4 µM (inactive) and 16 µM (inactive); with IGROV-1 it was 39.2 µM (inactive) and 28.1 µM (inactive); in the assay on U-251 it was 15.8 µM (inactive) and 15.9 µM (inactive); with RXF 393, 18 µM (inactive) and 22.8 µM (inactive); in the assay on T47D, 39.3 µM (inactive). The GI50 was 5.82 µM (inactive) in the assay on MDA-MB-435; 26.3 µM (inactive) and 19.8 µM (inactive) in the assay with SF-268; 19.9 µM (inactive) in the assay on PC-3; 16.4 µM (inactive) in the assay on MDA-MB-231; 52.2 µM (inactive) in the assay with NCI/ADR-RES; 23.1 µM (inactive) and 24.3 µM (inactive) in the assay on NCI-H226. In addition, the GI50 with HCC 2998 was 49.1 µM (inactive) and 55 µM (inactive).

On to `CCN(CC)C(=S)SS(=O)(=O)c1ccc(F)cc1`, for which the GI50 was > 100 µM (inactive) in the assay on TK-10; 34.5 µM (inactive) in the assay on SN12C; > 100 µM (inactive) in the assay with OVCAR-3; 0.348 µM (active) in the assay with SR; 18.8 µM (inactive) in the assay with U-251; 66.7 µM in the assay on HCT-15. The GI50 with RXF 393 was 18.8 µM (inactive); in the assay with SW-620, 17.9 µM (inactive); in the assay on T47D it was 85.1 µM (inactive); with MDA-MB-435, 38.9 µM (inactive); with OVCAR-4 it was > 100 µM (inactive); with SF-539 it was 23 µM (inactive). Besides, the GI50 in the assay on SF-268 is > 100 µM (inactive); with HCT-116 it was 25.3 µM (inactive); with MDA-MB-231, 32.4 µM (inactive); with NCI/ADR-RES it was 50.7 µM (inactive); in the assay on NCI-H226 it was > 100 µM (inactive); in the assay with HCC 2998, > 100 µM (inactive).

For `Cc1nc2cc(F)c(F)cc2[nH]c1=O`, the GI50 in the assay with TK-10 is > 100 µM (inactive); with SN12C, > 100 µM (inactive); in the assay with OVCAR-3, > 100 µM (inactive); in the assay with U-251, > 100 µM (inactive); in the assay on HCT-15 it was greater than 100 µM; with RXF 393 it was > 100 µM (inactive). In addition, the GI50 with SW-620, in the assay with T47D, with MDA-MB-435, in the assay with OVCAR-4, in the assay with SF-539 and in the assay on SF-268 was > 100 µM (inactive) each time. The GI50 with PC-3, in the assay with HCT-116, in the assay with MDA-MB-231, in the assay on NCI/ADR-RES, in the assay on NCI-H226 and in the assay on HCC 2998 was > 100 µM (inactive) throughout.

As to `CN(C)CCNC(=O)Cn1cnc2cccc([N+](=O)[O-])c2c1=O`, the GI50 in the assay on TK-10, with SN12C, in the assay with OVCAR-3, in the assay with SR, with IGROV-1 and with U-251 was > 100 µM (inactive) each time. Besides, the GI50 is greater than 100 µM in the assay with HCT-15; > 100 µM (inactive) in the assay with RXF 393; > 100 µM (inactive) with SW-620; > 100 µM (inactive) with T47D; > 100 µM (inactive) in the assay on MDA-MB-435; > 100 µM (inactive) in the assay with OVCAR-4. Further, the GI50 in the assay with SF-539, with SF-268, with PC-3, with HCT-116, in the assay on NCI/ADR-RES and with NCI-H226 was > 100 µM (inactive) in each case. Besides, the GI50 in the assay on HCC 2998 is > 100 µM (inactive).

For `Nc1nc(Cl)cc(NCC2(CO)CC=CC2)n1`, the GI50 in the assay on TK-10 is > 100 µM (inactive); in the assay on SN12C, > 100 µM (inactive); with OVCAR-3 it was 80.2 µM (inactive); in the assay on IGROV-1, > 100 µM (inactive); in the assay on U-251, > 100 µM (inactive); in the assay on HCT-15, greater than 100 µM. Besides, the GI50 was 33.1 µM (inactive) in the assay on RXF 393; > 100 µM (inactive) with SW-620; 47.1 µM (inactive) in the assay with T47D; > 100 µM (inactive) in the assay with MDA-MB-435; 80 µM (inactive) in the assay on OVCAR-4; > 100 µM (inactive) with SF-539. Further, the GI50 in the assay with SF-268, in the assay with PC-3, with HCT-116, in the assay on MDA-MB-231, in the assay on NCI/ADR-RES and in the assay with NCI-H226 was > 100 µM (inactive) throughout. The GI50 with HCC 2998 is > 100 µM (inactive).

Turning to `CC1=CC(=O)c2ccc3c4ccccc4n(C)c3c2C1=O`, the GI50 in the assay with TK-10 is > 100 µM (inactive); in the assay with SN12C it was > 69 µM (inactive); with OVCAR-3, 54.8 µM (inactive); in the assay on IGROV-1, 16.9 µM (inactive); in the assay with U-251 it was 49 µM (inactive); in the assay with HCT-15, 25.5 µM. The GI50 is 43.6 µM (inactive) with RXF 393; 92.3 µM (inactive) in the assay on SW-620; 33.8 µM (inactive) in the assay on T47D; 17.1 µM (inactive) with MDA-MB-435; 74 µM (inactive) in the assay on OVCAR-4; > 100 µM (inactive) in the assay with SF-539. In addition, the GI50 with SF-268 is > 70 µM (inactive); with HCT-116, > 88.5 µM (inactive); in the assay on MDA-MB-231 it was 70.6 µM (inactive); with NCI/ADR-RES, > 100 µM (inactive); in the assay with NCI-H226, > 94.4 µM (inactive); in the assay with HCC 2998, > 96.4 µM (inactive).

Take `O[C@H]1[C@H](O)[C@@H](O)[C@@]2(O)CC[C@@H]1N2`: the GI50 was > 100 µM (inactive) in the assay on TK-10; > 100 µM (inactive) in the assay with SN12C; > 100 µM (inactive) in the assay on OVCAR-3; > 100 µM (inactive) in the assay with IGROV-1; > 100 µM (inactive) in the assay with U-251; greater than 100 µM in the assay with HCT-15. For the same molecule, the GI50 in the assay on RXF 393, in the assay on SW-620, with T47D, in the assay with MDA-MB-435, with OVCAR-4 and with SF-539 was > 100 µM (inactive) each time. In addition, the GI50 in the assay on SF-268, with PC-3, with HCT-116, with MDA-MB-231, in the assay on NCI/ADR-RES and in the assay on NCI-H226 was > 100 µM (inactive) in each case. For the same molecule, in the assay on HCC 2998, the GI50 is > 100 µM (inactive).

Turning to `Cc1cc2occ(S(=O)(=O)NC(=O)Nc3ccc(Cl)cc3)c(=O)c2c(=O)o1`, the GI50 was > 100 µM (inactive) in the assay with TK-10; > 100 µM (inactive) with SN12C; > 100 µM (inactive) in the assay with OVCAR-3; > 100 µM (inactive) with IGROV-1; > 100 µM (inactive) in the assay with U-251; 9.18 µM in the assay on HCT-15. Moreover, the GI50 in the assay on RXF 393, in the assay on SW-620, in the assay on T47D, in the assay with MDA-MB-435, in the assay with OVCAR-4 and with SF-539 was > 100 µM (inactive) in each case. The GI50 in the assay with SF-268, in the assay with PC-3, in the assay with HCT-116, in the assay with MDA-MB-231, in the assay with NCI/ADR-RES and in the assay on NCI-H226 was > 100 µM (inactive) throughout. The GI50 in the assay on HCC 2998 was > 100 µM (inactive).

Consider `CC1(C)CC(=O)c2c(nc3c(ccc4ccccc43)c2-c2ccc(NC(=O)CCCCC(=O)Nc3ccc(-c4c5c(nc6c4ccc4ccccc46)CC(C)(C)CC5=O)cc3)cc2)C1`, for which the GI50 in the assay on TK-10 was 48.6 µM (inactive); in the assay on SN12C, 33.1 µM (inactive); in the assay on OVCAR-3, 25.6 µM (inactive); in the assay on IGROV-1 it was 14 µM (inactive); in the assay with U-251, 28.4 µM (inactive); with HCT-15, 27.7 µM. For the same molecule, the GI50 was 78.3 µM (inactive) in the assay on RXF 393; 38.6 µM (inactive) with SW-620; 22.6 µM (inactive) in the assay on T47D; 26.2 µM (inactive) with MDA-MB-435; 20.6 µM (inactive) in the assay on SF-539; 28.2 µM (inactive) in the assay on SF-268. For the same molecule, the GI50 is 27.4 µM (inactive) with PC-3; 23.9 µM (inactive) with HCT-116; 19.3 µM (inactive) with MDA-MB-231; 23.8 µM (inactive) with NCI/ADR-RES; 15.2 µM (inactive) with NCI-H226.
